By IC50 is commonly meant the concentration at which inhibition is half-maximal.

The subject of one data set is MDCKII-parent. The experiment in a line: MTT proliferation / drug combination assay. Type of data set: cell-based, Canine. The following applies: Canis lupus familiaris, 48 h. The protocol:
(§1) The viability MTT assay was employed in several experimental sets, including induction studies, comparative viability assays, and drug combinations. First, 1.3 × 10^4 (MDCKII sublines), 1.2 × 10^4 (A431 sublines), 1.5 × 10^4 (MCF-7), and 1.0 × 10^4 (primary NSCLC explants) cells were seeded in 96-well plates. After seeding, cells were left to refresh in incubator for 24 h. Secondly, the medium was removed, and the serial dilutions of the drugs or drug combinations were added to the cells. Next to these variants, a medium with 40% DMSO and vehicle-containing media were tested as nonviable and unaffected viability controls, respectively. After an additional 48 h of incubation, the cells were washed with 1 × PBS and then treated with 1 mg/mL MTT solution in Opti-MEM. Subsequently, cells were incubated for 60 min under standard conditions. After MTT treatment, generated formazan crystals were solubilized with DMSO for 10 min. Wavelengths of 570 nm (formazan) and 690 nm (background) were used for absorbance measurements using a microplate reader Infinite 200 Pro NanoQuant (Tecan, Männedorf, Switzerland).
(§2) In vitro cell lines (MDCKII and A431) and primary NSCLC explants were seeded (see densities above) in 96-well plates and incubated for 24 h. […] Combined cells were incubated with the tested compounds for 48 h, and subsequently, MTT assay was performed to assess cell viability as described above. Besides IC50-shift analysis, CompuSyn 3.0.1 software (ComboSyn Inc., Paramus, NJ, USA) was used for the additional analysis of obtained data. This software works with the algorithms of the combination index (CI) method of Chou–Talalay, which is frequently used for the accurate quantification of drug combinations’ outcomes. According to the CI method principle, the combination effects were separated into three categories, including synergistic (CI < 0.9), additive (CI between 0.9–1.1), or antagonistic (CI > 1.1) ones.

The next data set has as its system A431-parent. The experiment in a line: MTT proliferation / drug combination assay. Type of data set: cell-based. The settings on record: Homo sapiens, 48 h. The protocol: as §1, §2
A short description of data set [1]: MTT proliferation / drug combination assay. Type of data set: cell-based, Canine. The settings on record: dog, MDCKII-ABCG2 cells; read-out: IC50. The protocol:
as §1, §2

A further data set has as its system A431-ABCG2. The data set can be described thus: MTT proliferation / drug combination assay. It is filed as cell-based. The following applies: Homo sapiens, 48 h; read-out: IC50. The protocol: as §1, §2

SMILES strings stand for the structures. Read-outs that look alike come from different tables or passages of the source.

For `COc1cccc2c1C(=O)c1c(O)c3c(c(O)c1C2=O)C[C@@](O)(C(C)=O)C[C@@H]3O[C@H]1C[C@H](N)[C@H](O)[C@H](C)O1` [daunorubicin], the results for the IC50 in the data set on MDCKII-parent and with A431-parent were 1000 nM and 1110 nM, respectively.
Turning to `O=C1c2c(O)ccc(O)c2C(=O)c2c(NCCNCCO)ccc(NCCNCCO)c21` [mitoxantrone], the IC50 in the data set with MDCKII-parent (read-out: IC50) was 1480 nM; in the data set on A431-ABCG2, 10000 nM; with A431-parent (read-out: IC50) it was 880 nM. In addition, the concentration for half-maximal inhibition (IC50) at 48 h in data set [1] was found to be 12100 nM.

The record behind these values is PMC9697930 (International Journal of Molecular Sciences, 2022).
